Laboratory results as given in patent US20240252527A9, “NUCLEOSIDE DRUGS FOR THE TREATMENT OR PREVENTION OF CORONAVIRUS INFECTION AND THEIR USES” (Miracure Biotechnology Limited, priority 2022, published 2024).
Like-named read-outs stand apart in the source and are kept apart here.

What was measured:
[1] = system: 229E; assay: 229E MRC5 CPE assay (cytopathic experiment); type: cell-based, coronavirus 229E (HCoV-229E)
Experimental: (§1) Cells were seeded into microplates at a certain density and cultured overnight in a incubator at 5% CO2, 37° C. The next day, double-diluted compound and virus were added. It was set up a cell control group (cells without treatment with a compound or virus infection), a virus control group (cells infected with virus, no compound treatment) and a culture medium control group (medium only). Cells were cultured in the incubator for 3 days (229E) or 7 days (OC43). Cytotoxicity experiments were performed under the same conditions as antiviral experiments, but without virus infection. Cell viability was tested using a cell viability assay kit Cell Titer Glo (Promega).
(§2) The antiviral activity and cytotoxicity of the compounds were expressed by the inhibition rate (%) and cell viability (%) of the compounds against virus-induced cytopathic effects at different concentrations, respectively. Nonlinear fitting analysis on the inhibition rate and cell viability of the compounds were carried out with the GraphPad Prism, and the half effective concentration (EC50), the […] effective concentration (EC90), the half cytotoxic concentration (CC50) and the 90% cytotoxic concentration of the compound […] values were calculated.

[2] = system: OC43; assay: OC43 Huh7 CPE assay (cytopathic experiment); type: cell-based, coronavirus OC43 (HCoV-OC43); conditions: for EC50: read-out: OC43 Huh7 CPE assay (μM) EC50; for EC90: read-out: OC43 Huh7 CPE assay (μM) EC90
Experimental: as §1, §2

[3] = Human coronavirus 229E, MRC5, 72 h; read-out: 229E MRC5 CPE assay (μM) EC50
[4] = Human coronavirus 229E, MRC5, 72 h; read-out: 229E MRC5 CPE assay (μM) EC90
[5] = Betacoronavirus 1, Huh-7, 168 h, Huh7 cells, OC43 virus, 7 days, Cell Titer Glo
[6] = Human coronavirus 229E, MRC5, 72 h, read-out: 229E MRC5 CPE assay (μM) EC50
[7] = Human coronavirus 229E, MRC5, 72 h, read-out: 229E MRC5 CPE assay (μM) EC90
[8] = Betacoronavirus 1, OC43, Huh-7, 168 h

Row | Compound | EC50 [1, 3] [µM] | EC90 [1, 4] [µM] | EC50 [2, 5] [µM] | EC90 [2, 5] [µM] | EC50 [1, 6] [µM] | EC90 [1, 7] [µM] | EC50 [2, 8] [µM] | EC90 [2, 8] [µM]
1 | CCC(CC)COC(=O)[C@H](C)NP(=O)(OC[C@H]1O[C@@](C#N)(c2ccc3c(N)ncnn23)[C@H](O)[C@@H]1O)Oc1ccc(Nc2ccnc3cc(Cl)ccc23)cc1CN(CC)CC (some centres unmarked) [Compound 016] | > 0.5 | > 0.5 | > 0.5 | > 0.5 |  |  |  | 
2 | CCC(CC)COC(=O)[C@H](C)NP(=O)(OC[C@H]1O[C@@](C#N)(c2ccc3c(N)ncnn23)[C@H](O)[C@@H]1O)ONC(=N)c1ccccc1 (some centres unmarked) [Compound 028] |  |  |  |  | > 0.5 | > 0.5 | > 0.5 | > 0.5
3 | CCCC(CCC)C(=O)OCOP(=O)(NC(C)(C)C(=O)OC(C)C)OC[C@H]1O[C@@](C#N)(c2ccc3c(N)ncnn23)[C@H](O)[C@@H]1O (some centres unmarked) [Compound 034] |  |  |  |  | 0.1 to 0.5 | > 0.5 | 0.1 to 0.5 | > 0.5
4 | CCCC(CCC)C(=O)OCO[P@](=O)(N[C@H](C)C(=O)OC(C)C)OC[C@H]1O[C@@](C#N)(c2ccc3c(N)ncnn23)[C@H](O)[C@@H]1O [Compound 036] |  |  |  |  | 0.1 to 0.5 | 0.1 to 0.5 | 0.1 to 0.5 | > 0.5
5 | CCCC(CCC)C(=O)O[C@@H]1[C@@H]2OP(=O)(O)OC[C@H]2O[C@@]1(C#N)c1ccc2c(N)ncnn12 [Compound 057] |  |  |  |  | > 0.5 | > 0.5 | 0.1 to 0.5 | > 0.5
6 | CCC(CC)COC(=O)[C@H](C)N[P@](=O)(OC[C@H]1O[C@@](C#N)(c2ccc3c(N)ncnn23)[C@H](O)[C@@H]1O)Oc1ccc(Nc2ccnc3cc(Cl)ccc23)cc1CN(CC)CC [Compound 062] | > 0.5 | > 0.5 | > 0.5 | > 0.5 |  |  |  | 
7 | CCC(CC)COC(=O)[C@H](C)N[P@@](=O)(OC[C@H]1O[C@@](C#N)(c2ccc3c(N)ncnn23)[C@H](O)[C@@H]1O)Oc1ccc(Nc2ccnc3cc(Cl)ccc23)cc1CN(CC)CC [Compound 063] | > 0.5 | > 0.5 | > 0.5 | > 0.5 |  |  |  | 
8 | CCC(CC)COC(=O)[C@H](C)N[P@@](=O)(OCCN(CC)CCCC(C)Nc1ccnc2cc(Cl)ccc12)OC[C@H]1O[C@@](C#N)(c2ccc3c(N)ncnn23)[C@H](O)[C@@H]1O (some centres unmarked) [Compound 068] |  |  |  |  | > 0.5 | > 0.5 | > 0.5 | > 0.5
9 | CCC(CC)COC(=O)[C@H](C)N[P@](=O)(OCCN(CC)CCCC(C)Nc1ccnc2cc(Cl)ccc12)OC[C@H]1O[C@@](C#N)(c2ccc3c(N)ncnn23)[C@H](O)[C@@H]1O (some centres unmarked) [Compound 069] |  |  |  |  | > 0.5 | > 0.5 | > 0.5 | > 0.5
10 | CCCC(CCC)C(=O)OCO[P@](=O)(N[C@@H](C)C(=O)OCC(CC)CC)OC[C@H]1O[C@@](C#N)(c2ccc3c(N)ncnn23)[C@H](O)[C@@H]1O [Compound 070] |  |  |  |  | 0.1 to 0.5 | 0.1 to 0.5 | 0.1 to 0.5 | > 0.5
11 | CCCC(CCC)C(=O)OCO[P@@](=O)(N[C@@H](C)C(=O)OCC(CC)CC)OC[C@H]1O[C@@](C#N)(c2ccc3c(N)ncnn23)[C@H](O)[C@@H]1O [Compound 071] |  |  |  |  | < 0.1 | < 0.1 | < 0.1 | < 0.1
12 | CCCC(CCC)C(=O)OCO[P@](=O)(N[C@@H](C)C(=O)OC(C)C)OC[C@H]1O[C@@](C#N)(c2ccc3c(N)ncnn23)[C@H](O)[C@@H]1O [Compound 074] |  |  |  |  | < 0.1 | < 0.1 | < 0.1 | 0.1 to 0.5
13 | CCCC(CCC)C(=O)OCO[P@@](=O)(N[C@@H](C)C(=O)OC(C)C)OC[C@H]1O[C@@](C#N)(c2ccc3c(N)ncnn23)[C@H](O)[C@@H]1O [Compound 075] |  |  |  |  | 0.1 to 0.5 | 0.1 to 0.5 | 0.1 to 0.5 | > 0.5
14 | N#C[C@@]1(c2ccc3c(N)ncnn23)O[C@H](COP(=O)(OCOC(=O)C2CCCC2)OCOC(=O)C2CCCC2)[C@@H](O)[C@H]1O [Compound 265] |  |  |  |  | > 0.5 | > 0.5 |  | 
15 | N#C[C@@]1(c2ccc3c(N)ncnn23)O[C@H](COP(=O)(OCOC(=O)OC2CCCC2)OCOC(=O)OC2CCCC2)[C@@H](O)[C@H]1O [Compound 277] |  |  |  |  | < 0.1 | 0.1 to 0.5 |  | 
